Experimental data taken from ChEMBL document CHEMBL1201862, “PubChem BioAssay data set” (2004).
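Interpolation was linear, between the two tested concentrations surrounding the appropriate level; five concentrations were tested over 48 hours in 96-well plates. GI50 = concentration required for 50% inhibition of growth.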 Activity calls are given as the source filed them. No stated cut-off is given here; in the data, active = GI50 up to about 1.1 µM and inactive = higher.

What was measured:
Assay in all cases: inhibition of tumour cell growth, NCI panel, 48 h
TK-10 = tested on: TK-10
OVCAR-4 = tested on: OVCAR-4
OVCAR-5 = tested on: OVCAR-5
IGROV-1 = tested on: IGROV-1
HOP-62 = tested on: HOP-62
SF-539 = tested on: SF-539
UO-31 = tested on: UO-31
K562 = tested on: K562
UACC-257 = tested on: UACC-257
SK-MEL-5 = tested on: SK-MEL-5
NCI-H23 = tested on: NCI-H23
COLO 205 = tested on: COLO 205
NCI-H460 = tested on: NCI-H460
NCI/ADR-RES = tested on: NCI/ADR-RES
HCT-116 = tested on: HCT-116
HCC 2998 = tested on: HCC 2998
RPMI-8226 = tested on: RPMI-8226
OVCAR-3 = tested on: OVCAR-3
SNB-75 = tested on: SNB-75
SR = tested on: SR

Row | SMILES | GI50 (TK-10) | GI50 (OVCAR-4) | GI50 (OVCAR-5) | GI50 (IGROV-1) | GI50 (HOP-62) | GI50 (SF-539) | GI50 (UO-31) | GI50 (K562) | GI50 (UACC-257) | GI50 (SK-MEL-5) | GI50 (NCI-H23) | GI50 (COLO 205) | GI50 (NCI-H460) | GI50 (NCI/ADR-RES) | GI50 (HCT-116) | GI50 (HCC 2998) | GI50 (RPMI-8226) | GI50 (OVCAR-3) | GI50 (SNB-75) | GI50 (SR)
1 | CO/C=C(/C(=O)OC)c1ccccc1Oc1c(F)c(F)c(F)c(F)c1F | 28.5 µM (inactive) | 24.4 µM (inactive) | > 100 µM (inactive) | 29.3 µM (inactive) | 53.6 µM (inactive) | 56 µM (inactive) | 32.2 µM (inactive) | 38.7 µM (inactive) | 24.9 µM (inactive) | 20.9 µM (inactive) | 37.7 µM (inactive) | 17.6 µM (inactive) | 31.6 µM (inactive) | 40.7 µM (inactive) | 22.9 µM (inactive) | 36.7 µM (inactive) | 16.8 µM (inactive) | 21.3 µM (inactive) |  | 
2 | Nc1nc(O)c2ncn([C@H]3CC[C@@H](CO)O3)c2n1 | > 100 µM (inactive) | > 100 µM (inactive) | > 100 µM (inactive) | > 100 µM (inactive) | > 100 µM (inactive) |  | > 100 µM (inactive) | > 100 µM (inactive) | > 100 µM (inactive) | > 100 µM (inactive) | > 100 µM (inactive) | > 100 µM (inactive) | > 100 µM (inactive) | > 100 µM (inactive) | > 100 µM (inactive) |  | > 100 µM (inactive) | > 100 µM (inactive) | > 100 µM (inactive) | > 100 µM (inactive)
3 | CC[C@@H](C)[C@H](NC(=O)[C@H](Cc1ccccc1)NCC(F)(F)F)C(=O)OC(C)(C)C | > 100 µM (inactive) | 82.2 µM (inactive) | > 100 µM (inactive) | > 100 µM (inactive) | > 100 µM (inactive) |  | > 100 µM (inactive) | > 100 µM (inactive) | 81.5 µM (inactive) | > 100 µM (inactive) | > 100 µM (inactive) | > 100 µM (inactive) | > 100 µM (inactive) | > 100 µM (inactive) | > 100 µM (inactive) | > 100 µM (inactive) |  | 89.9 µM (inactive) |  | > 100 µM (inactive)
4 | CCCC(=O)OCC1OC(n2ccc(N)nc2=O)C(OC(=O)CCC)C1OC(=O)CCC (centres undefined) |  | > 100 µM (inactive) | 15.5 µM (inactive) | > 63 µM (inactive) | 0.0957 µM (active) | 77.3 µM (inactive) | 21.6 µM (inactive) | > 100 µM (inactive) | > 31.7 µM (inactive) | > 86.5 µM (inactive) | 5.01 µM (inactive) | > 100 µM (inactive) | 2.74 µM (inactive) | 68.9 µM (inactive) | 33.3 µM (inactive) | > 100 µM (inactive) | > 100 µM (inactive) | > 100 µM (inactive) | > 48.9 µM (inactive) | 
5 | CN(C)CC1(Cc2ccccc2)CC/C(=C\c2ccccc2)C1=O (centres undefined) | > 100 µM (inactive) | 51.3 µM (inactive) | 40.6 µM (inactive) | 47.8 µM (inactive) | > 100 µM (inactive) | 24.9 µM (inactive) | 47.8 µM (inactive) | 29.4 µM (inactive) | 32.4 µM (inactive) | 22.5 µM (inactive) | 44.8 µM (inactive) | 32.9 µM (inactive) | 28.2 µM (inactive) |  | 29.1 µM (inactive) | 19.9 µM (inactive) | 23.9 µM (inactive) | 31.4 µM (inactive) | 57.3 µM (inactive) | 34 µM (inactive)
6 | CC1=C(C(=O)NCCc2ccccc2)CC(C(=O)NCCc2ccccc2)=C(C)N1 | > 100 µM (inactive) | > 100 µM (inactive) | > 100 µM (inactive) | 54.8 µM (inactive) | 75.3 µM (inactive) | > 100 µM (inactive) | 65.8 µM (inactive) | 44.3 µM (inactive) | > 100 µM (inactive) |  | > 100 µM (inactive) | > 100 µM (inactive) | 82.4 µM (inactive) | > 100 µM (inactive) | 74.5 µM (inactive) | > 100 µM (inactive) | 45.7 µM (inactive) | 88.3 µM (inactive) | 14.3 µM (inactive) | 
7 | CN1C/C(=C\c2ccc(C(=O)O)cc2)C(=O)/C(=C/c2ccc(C(=O)O)cc2)C1 | > 100 µM (inactive) | > 100 µM (inactive) | > 100 µM (inactive) | > 100 µM (inactive) | > 100 µM (inactive) | > 100 µM (inactive) | > 100 µM (inactive) | > 100 µM (inactive) | > 100 µM (inactive) | > 100 µM (inactive) | > 100 µM (inactive) | > 100 µM (inactive) | > 100 µM (inactive) |  | > 100 µM (inactive) | > 100 µM (inactive) | > 100 µM (inactive) | > 100 µM (inactive) | > 100 µM (inactive) | > 100 µM (inactive)
8 | CC1(C)[C@@H](Cn2cnc3c(O)nc(N)nc32)CC[C@@]1(C)CO | > 100 µM (inactive) | > 100 µM (inactive) | > 100 µM (inactive) |  | > 100 µM (inactive) | > 100 µM (inactive) | > 100 µM (inactive) | > 100 µM (inactive) | > 100 µM (inactive) | > 100 µM (inactive) |  |  |  | > 100 µM (inactive) | > 100 µM (inactive) | > 100 µM (inactive) | > 100 µM (inactive) | > 100 µM (inactive) | > 100 µM (inactive) | 
9 | C/N=c1\ss/c(=N\C(=S)N(C)C)n1-c1ccccc1 | > 100 µM (inactive) | > 100 µM (inactive) | > 100 µM (inactive) | 97.7 µM (inactive) | > 80.7 µM (inactive) | 31 µM (inactive) | > 55.7 µM (inactive) | > 100 µM (inactive) | > 100 µM (inactive) | > 20.7 µM (inactive) | > 68.1 µM (inactive) | > 100 µM (inactive) | > 100 µM (inactive) |  | > 72.8 µM (inactive) | > 100 µM (inactive) | > 100 µM (inactive) | > 100 µM (inactive) | 17.3 µM (inactive) | > 100 µM (inactive)
10 | FC(F)(F)c1nc(-c2ccccc2)oc1Sc1oc(-c2ccccc2)nc1C(F)(F)F | > 100 µM (inactive) | 19.7 µM (inactive) | > 100 µM (inactive) | > 100 µM (inactive) | 58.7 µM (inactive) | 55.6 µM (inactive) | > 100 µM (inactive) | > 100 µM (inactive) | > 100 µM (inactive) | > 100 µM (inactive) | > 100 µM (inactive) | > 100 µM (inactive) | 99.1 µM (inactive) |  | > 100 µM (inactive) | > 100 µM (inactive) | 93.3 µM (inactive) | > 100 µM (inactive) | 29.7 µM (inactive) | 46.6 µM (inactive)
11 | CC12CCC(C(=O)N3CC=CCC3)(OC1=O)C2(C)C (centres undefined) |  | > 100 µM (inactive) | > 100 µM (inactive) | > 100 µM (inactive) | > 100 µM (inactive) | > 100 µM (inactive) | > 100 µM (inactive) | > 100 µM (inactive) | > 100 µM (inactive) | > 100 µM (inactive) | > 100 µM (inactive) | > 100 µM (inactive) | > 100 µM (inactive) | > 100 µM (inactive) | > 100 µM (inactive) | > 69 µM (inactive) | > 100 µM (inactive) | > 100 µM (inactive) | > 100 µM (inactive) | 
12 | CC(=O)OCCOCNC(=S)N/N=C(\C)c1cnc2ccccc2n1 | > 100 µM (inactive) | 57.1 µM (inactive) | 7.91 µM (inactive) | 42 µM (inactive) | 86.3 µM (inactive) | 55.8 µM (inactive) | 41.5 µM (inactive) | 43.4 µM (inactive) | 48.4 µM (inactive) | 25.1 µM (inactive) | 72.8 µM (inactive) | 20.1 µM (inactive) | 27 µM (inactive) |  | 25.4 µM (inactive) | 32.7 µM (inactive) | 47.8 µM (inactive) | 16.8 µM (inactive) | 52.7 µM (inactive) | > 100 µM (inactive)
13 | CN1CCN(CCCN2c3ccccc3Sc3ccc(C(F)(F)F)cc32)CC1 |  | 8.81 µM (inactive) | 11.2 µM (inactive) |  | 11.3 µM (inactive) | 4.65 µM (inactive) | 6.32 µM (inactive) |  | 1.91 µM (inactive) | 1.91 µM (inactive) | 11.1 µM (inactive) |  | 2.24 µM (inactive) | 8.22 µM (inactive) | 4.25 µM (inactive) |  |  |  | 4.31 µM (inactive) | 
14 | CCCn1c(=O)c2ccccc2[n+]2c(-c3ccc([N+](=O)[O-])cc3)csc12 | > 10 µM (inactive) | 17.9 µM (inactive) | 17.8 µM (inactive) | 20.3 µM (inactive) | 18.9 µM (inactive) | 17.2 µM (inactive) | 18.3 µM (inactive) | 20.9 µM (inactive) | 27.7 µM (inactive) | 18.6 µM (inactive) | 31 µM (inactive) | 39.9 µM (inactive) | 21.9 µM (inactive) | 7.67 µM (inactive) | 23.8 µM (inactive) | 77.4 µM (inactive) | 18 µM (inactive) |  | 21.7 µM (inactive) | 
15 | COc1ccccc1/N=N/C(=N/NC(=O)c1ccc(C)cc1)c1ccc(N(CCC#N)CCC#N)cc1OC | 68.5 µM (inactive) | 31.9 µM (inactive) | > 100 µM (inactive) | 37.6 µM (inactive) | 40.5 µM (inactive) |  | 38.5 µM (inactive) | 31.3 µM (inactive) | 38.3 µM (inactive) | 37.8 µM (inactive) | 32.4 µM (inactive) | 16 µM (inactive) | 29.5 µM (inactive) | > 100 µM (inactive) | 25.1 µM (inactive) | 34.2 µM (inactive) | 14 µM (inactive) | 29 µM (inactive) |  | 
